Data on 13 molecules can be found in US6673799B1, “Cyanophenyl derivative” (priority 1998, dated 2004).

By Ki is commonly meant a dissociation constant, usually derived from enzyme kinetics or from competition with a known ligand. What is called melting point is the temperature, or range, at which the solid turns liquid.

SMILES strings stand for the structures.

The first data set concerns the target T1, rat androgen receptor (Rattus norvegicus, UniProt P15207).
T1 construct: The cytosol fraction obtained in the step (1) was adjusted to a protein concentration of 1 mg/ml and used as a rat androgen receptor solution; from tissue; host or cells: rat ventral prostate gland cytosol fraction (male Wistar rats, castrated)
T1 sequence (P15207 1-902): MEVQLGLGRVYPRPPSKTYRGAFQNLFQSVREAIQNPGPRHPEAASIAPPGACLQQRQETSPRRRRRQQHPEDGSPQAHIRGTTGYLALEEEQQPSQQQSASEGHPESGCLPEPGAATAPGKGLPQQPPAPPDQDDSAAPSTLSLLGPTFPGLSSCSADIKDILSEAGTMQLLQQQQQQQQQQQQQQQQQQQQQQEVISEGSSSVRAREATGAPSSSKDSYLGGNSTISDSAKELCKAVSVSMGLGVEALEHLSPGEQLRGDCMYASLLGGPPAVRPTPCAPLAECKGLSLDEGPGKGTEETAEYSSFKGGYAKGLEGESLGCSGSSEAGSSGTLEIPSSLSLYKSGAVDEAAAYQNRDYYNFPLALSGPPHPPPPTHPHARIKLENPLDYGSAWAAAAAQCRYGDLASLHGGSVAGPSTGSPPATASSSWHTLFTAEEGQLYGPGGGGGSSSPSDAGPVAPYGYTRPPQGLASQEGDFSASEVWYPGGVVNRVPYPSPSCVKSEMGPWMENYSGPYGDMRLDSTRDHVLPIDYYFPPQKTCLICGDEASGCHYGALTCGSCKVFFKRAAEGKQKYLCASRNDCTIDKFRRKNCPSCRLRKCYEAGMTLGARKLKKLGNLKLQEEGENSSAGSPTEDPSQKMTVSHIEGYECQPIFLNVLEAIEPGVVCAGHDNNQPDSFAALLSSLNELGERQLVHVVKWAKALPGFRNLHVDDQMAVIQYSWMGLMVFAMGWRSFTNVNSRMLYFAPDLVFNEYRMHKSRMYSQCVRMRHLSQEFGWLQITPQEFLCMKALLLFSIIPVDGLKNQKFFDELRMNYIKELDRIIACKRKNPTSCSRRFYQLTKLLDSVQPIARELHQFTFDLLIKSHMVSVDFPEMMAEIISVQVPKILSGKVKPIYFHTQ
As to the kind of experiment: biochemical. As to conditions: 3H-mibolerone 1 nM, rat prostate cytosol; Ki calculated from IC50 by Cheng and Prusoff; read-out: Binding activity for rat androgen receptor (Ki = nM).
`CNC(=O)c1cc(NC(=O)N2C[C@H](C)N(c3ccc(C#N)c(C(F)(F)F)c3)C[C@H]2C)ccn1` [Example 13-1, (2R,5S)-4-(4-Cyano-3-trifluoromethylphenyl)-2,5-dimethyl-N-(2-methylcarbamoyl-4-pyridyl)piperazine-1-carboxamide]: the Ki was 1.91 nM.
Consider `C[C@@H]1CN(c2ccc(C#N)c(C(F)(F)F)c2)[C@@H](C)CN1C(=O)Nc1ccnc(F)c1` [Example 18-8, (2R,5S)-4-(4-Cyano-3-trifluoromethylphenyl)-N-(2-fluoro-4-pyridyl)-2,5-dimethylpiperazine-1-carboxamide], for which the Ki was 15.6 nM.
As for `C[C@@H]1CN(c2ccc(C#N)c(C(F)(F)F)c2)[C@@H](C)CN1C(=O)Nc1ccc(C#N)nc1` [Example 18-7, (2R,5S)-N-(6-Cyano-3-pyridyl)-4-(4-cyano-3-trifluoromethylphenyl)-2,5-dimethylpiperazine-1-carboxamide], the Ki was 6.66 nM.
On the same count and under the same terms, in the case of `C[C@@H]1CN(c2ccc(C#N)c(C(F)(F)F)c2)[C@@H](C)CN1C(=O)Nc1ccnc(N)n1` [Example 21, (2R,5S)-N-(2-Amino-pyrimidin-4-yl)-4-(4-cyano-3-trifluoromethylphenyl)-2,5-dimethylpiperazine-1-carboxamide] it was 1.81 nM; in that of `COc1ccc(NC(=O)N2C[C@H](C)N(c3ccc(C#N)c(C(F)(F)F)c3)C[C@H]2C)cn1` [Example 6-13, (2R,5S)-4-(4-Cyano-3-trifluoromethylphenyl)-N-(6-methoxy-3-pyridyl)-2,5-dimethylpiperazine-1-carboxamide], 3.58 nM.
Still for that read-out and setting: in the case of `C[C@@H]1CN(c2ccc(C#N)c(C(F)(F)F)c2)[C@@H](C)CN1C(=O)Nc1ccnc(Br)c1` [Example 6-1, (2R,5S)-N-(2-Bromo-4-pyridyl)-4-(4-cyano-3-trifluoromethylphenyl)-2,5-dimethylpiperazine-1-carboxamide] it was 7.56 nM.

System in another data set: not given
Experiment: not given
Details: not given
The molecule `C[C@@H]1CN(C(=O)NC(C)(C)c2ccccc2)[C@@H](C)CN1c1ccc(C#N)c(C(F)(F)F)c1` (relative stereo) displayed a melting point of 152.5 to 153.5 °C.
Still for that read-out and setting: in the case of `C[C@@H]1CN(C(=O)Nc2ccc(F)cc2)[C@@H](C)CN1c1ccc(C#N)c(C(F)(F)F)c1` (relative stereo) it was 200 to 203 °C.
Same read-out and setting: under `C[C@@H]1CN(c2ccc(C#N)c(C(F)(F)F)c2)[C@@H](C)CN1C(=O)Nc1ccc(C#N)nc1` [Example 18-7, (2R,5S)-N-(6-Cyano-3-pyridyl)-4-(4-cyano-3-trifluoromethylphenyl)-2,5-dimethylpiperazine-1-carboxamide] stands 220 to 222 °C.
Still for that read-out and setting: in the case of `COc1ccc(NC(=O)N2C[C@H](C)N(c3ccc(C#N)c(C(F)(F)F)c3)C[C@H]2C)cn1` [Example 6-13, (2R,5S)-4-(4-Cyano-3-trifluoromethylphenyl)-N-(6-methoxy-3-pyridyl)-2,5-dimethylpiperazine-1-carboxamide] it was 184 to 185 °C; in that of `C[C@@H]1CN(c2ccc(C#N)c(C(F)(F)F)c2)[C@@H](C)CN1C(=O)N1CC[S+]([O-])CC1` (relative stereo), 173 to 175 °C; in that of `C[C@@H]1CN(c2ccc(C#N)c(C(F)(F)F)c2)[C@@H](C)CN1C(=O)Nc1ccc(F)nc1`, 163 to 165 °C.
Molecule `CC(=O)Nc1nccc(NC(=O)N2C[C@@H](C)N(c3ccc(C#N)c(C(F)(F)F)c3)C[C@@H]2C)n1` (racemic) registered a melting point of 191 to 193 °C.
On the same count and under the same terms, in the case of `CC1(C)CN(c2ccc(C#N)c(C(F)(F)F)c2)CN1C(=O)Nc1ccc(F)cc1` it was 199 to 200 °C; in that of `C[C@@H]1CN(C(=O)Nc2ccnc(N)c2)[C@@H](C)CN1c1ccc(C#N)c(C(F)(F)F)c1` (racemic), 208 to 211 °C.
